Tumor inhibition rate data for one compound are collected here from patent US20130052134A1, “PEG-PLGA-PLL POLYMER AND METHOD FOR PREPARING AND USING THE SAME AS THE DRUG AND GENE CARRIER” (Shanghai Cancer Institute, priority 2009, published 2013).

The experiment has as its system MDA-MB-231 mammary cancer. Kind of experiment: Therapeutic test in mice bearing MDA-MB-231 mammary cancer (tumor volume). The class given is in vivo, nude mice. As to conditions: tail intravenous injection once every 4 days; treatment duration 36 days.

Description: 0.2 ml of MDA-MB-231 mammary cancer cells (2×10^5) was subcutaneously injected to the axillary region near the forelimb of nude mice, and 2 weeks later, the tumor model was successfully established.
In the therapeutic test, corresponding normal saline, free mitoxantrone, drug-loaded mPEG-PLGA-PLL nanoparticles and drug-loaded mPEG-PLGA-PLL-RGD nanoparticles were given once every 4 days through tail intravenous injection, the tumor volume was subsequently measured, and the treatment duration was 36 days.

In turn, `O=C1c2c(O)ccc(O)c2C(=O)c2c(NCCNCCO)ccc(NCCNCCO)c21` [free mitoxantrone chloride, mitoxantrone chloride] registered a tumor inhibition rate of 10.32%.
